Measurements from patent US4977138A, “FR901228 substance and preparation thereof” (Fujisawa Pharmaceutical Co., Ltd., priority 1988, dated 1990).
Converted amounts (≈) assume the structure as drawn.

Columns and labels:
[1] = Solubility of FR901228 substance in solvents; format: physicochemical
Aspergillus niger = experiment: Antimicrobial activity, agar dilution method in Sabouraud medium; format: cell-based; settings: 48 hours incubation at 25° C.
Procedure: (§1) Antimicrobial activity of FR901228 was performed by an agar dilution method in Sabouraud medium.
(§2) Minimum inhibitory concentration (MIC) is expressed in terms of μg/ml after 48 hours incubation at 25° C.

[2] = tested on: Aureobasidium pullulans IFO 4466; experiment: as above; format: cell-based; settings: 48 hours incubation at 25° C.
Procedure: as §1, §2

Shizosaccharomyces pombe = experiment: as above; format: cell-based; settings: 48 hours incubation at 25° C.
Procedure: as §1, §2

A549 (lung cancer) = experiment: Inhibition of human tumor cell growth in vitro (MTT cytotoxicity test); format: cell-based; settings: four days
Procedure: (§3) The cytotoxicity test was performed in microtiter plates, with each well containing 3×10^3 tumor cells in 100 μl Dulbecco's minimum essential medium supplemented with 10% fetal calf serum, penicillin (50 units/ml) and streptomycin (50 μg/ml). The cells were incubated at 37° C. for four days and the colorimetric MTT [3-(4,5-dimethylthiazol-2-yl)-2,5-diphenyl tetrazolium bromide, made by Sigma] assay was performed according to the method described by Mosmann (J. Immunol. Methods, 65, 55-63, 1983). MTT was dissolved in phosphate buffer solution (PBS) at 5 mg/ml and filtered to sterilize and remove a small amount of insoluble residue. After the culture of human tumor cells was terminated, this MTT solution (10 μl per 100 μl medium) was added to all wells of an assay, and plates were further incubated at 37° C. for 4 hours. Acid-isopropanol (100 μl of 0.04N HCl in isopropanol) was added to all wells and mixed thoroughly to dissolve the dark blue crystals. After all crystals were dissolved, the plates were read on a 2-wavelength microplate photometer (Model MTP-22; Corona Electric Co., Ltd., Katsuta, Japan) at 550 nm, a reference wavelength of 660 nm. The object compound of this invention was dissolved in methanol and diluted in Dulbecco's minimum essential medium and added to the culture to give final concentration of 1 μg/ml or less.

MCF-7 (breast cancer) = experiment: as above; format: cell-based; settings: four days
Procedure: as §3

SW480 (colon cancer) = experiment: as above; format: cell-based; settings: four days
Procedure: as §3

P388 murine leukemia = experiment: Antitumor activity against P388 murine leukemia; format: in vivo, BDFl mice; settings: for Mean Survival Time: once daily for four days from 24 hours after inoculation, BDFl mice; for Time (%) (T/C % of mean survival time): 100× treated group/control group
Procedure: Antitumor activity of FR901228 substance was determined in murine tumor system. P388 leukemia cells […] were implanted intraperitoneally into BDFl mice (female, 8 weeks old). Twenty-four hours after the inoculation of tumor cells, FR901228 substance was administered intraperitoneally to mice. Administrations of FR901228 substance were continued intraperitoneally once daily for another three days. FR901228 substance was suspended in 0.9% saline. Control mice received intraperitoneal doses of 0.9% saline.
Antitumor activity was expressed as the mean survival time of group and also expressed as the T/C % (100× treated group/control group) of mean survival time.

[3] = 0.32 mg/kg/day intraperitoneally
[4] = 1.0 mg/kg/day intraperitoneally

SMILES: C/C=C1\NC(=O)[C@H]2CSSCC/C=C/[C@H](CC(=O)N[C@H](C(C)C)C(=O)N2)OC(=O)[C@H](C(C)C)NC1=O [FR901228 substance]
- Solubility ([1]; chloroform): soluble
- Solubility ([1]; ethanol): sparingly soluble
- Solubility ([1]; ethyl acetate): soluble
- Solubility ([1]; hexane): insoluble
- Solubility ([1]; methanol): sparingly soluble
- Solubility ([1]; water): insoluble
- MIC (Aspergillus niger): 100 µg/mL (≈ 185 µM)
- MIC [2]: 10 µg/mL (≈ 18.5 µM)
- MIC (Shizosaccharomyces pombe): 10 µg/mL (≈ 18.5 µM)
- IC50 (A549 (lung cancer)): 0.00082 µg/mL (≈ 0.00152 µM)
- IC50 (MCF-7 (breast cancer)): 0.00099 µg/mL (≈ 0.00183 µM)
- IC50 (SW480 (colon cancer)): 0.00057 µg/mL (≈ 0.00105 µM)
- Mean Survival Time (P388 murine leukemia; [3]): 14.25 days
- Time (%) (T/C % of mean survival time) (P388 murine leukemia; [3]): 158.3%
- Mean Survival Time (P388 murine leukemia; [4]): 15.25 days
- Time (%) (T/C % of mean survival time) (P388 murine leukemia; [4]): 169.4%
